Reference: US20100173936A1 (priority 2008, published 2010)

Assays:
Type in all cases: in vivo, human
[1] = Adverse events in the diabetic hypertensive crossover study (cough, angioedema, potassium/creatinine, hypotension)
Description: (§1) Subjects with hypertension requiring therapy were excluded from the study as one of the goals of the study was to measure the anti-inflammatory effects of an ACE inhibitor independently of its blood pressure lowering effects. Subjects on lipid lowering therapy (e.g., statin therapy) at the time of enrollment continued their therapy without change throughout the study. Written informed consent was obtained from all subjects. […] After the initial 8 weeks of treatment, there was a 4 week washout period. The subjects then received in a crossover fashion the alternate pharmacological regimen. Allocation concealment was maintained until the end of the study. Pill counts were obtained at the end of the treatment period to determine compliance (13). Subjects were advised to self-administer half of the full dose during the initial 2 days of therapy, after which they were to take the full study dose at the same time each morning. The total study period was 22 weeks. […] Blood pressure was checked with at least three separate measurements that were taken approximately five minutes apart using an Omron sphygmomanometer.

glycosylated hemoglobin = experiment: Glycosylated hemoglobin in the diabetic hypertensive crossover study
[2] = Blood pressure in randomized crossover study, Type II diabetes mellitus with hypertension
Description: as §1, with “subjects. All subjects were evaluated at the time of enrollment. The subjects received nutritional counseling and were advised to record their weight and calorie counts weekly. A nutritionist was available for counseling throughout the study. Blood samples were drawn before and at the end of therapy at a similar time of day while subjects were fasting.” for “subjects.”

LDL = LDL oxidation lag time, CuSO4 assay on LDL isolated from treated subjects
Description: Although, the mechanisms of this damage have yet to be clearly established and may involve the inactivation of nitric oxide (NO) by oxygen-derived free radicals such as superoxide (33), it is clear that this inflammatory response affects the gene expression of regulatory molecules, such as vascular cell adhesion molecule and tumor necrosis factor-alpha (34-36), which in turn promote foam cell formation. In this regard, a reduction in NO levels along with an increase in ox-LDL may function as immunomodulators of the atherosclerotic process (37) and, indeed, recent studies imply that ox-LDL stimulates an immunological response through the formation of autoantibodies, resulting in further damage to the endothelium and acceleration of the atherosclerotic process (38,39). This antibody response may represent a marker for the extent of atherosclerosis seen in individuals. […] The LDL was then oxidized to ox-LDL by an in vitro assay utilizing CuSO4 (52). The lag time indicating the susceptibility of the LDL to oxidize was measured using a spectrophotometer at […] (42). Values were performed in triplicate.

[3] = Brachial artery reactivity testing (BART), flow-mediated vasodilation, diabetic hypertensive subjects
Description: Briefly, the subjects were positioned in the supine position with the arm in a comfortable position for imaging the brachial artery. A blood pressure cuff was then placed on the forearm, after which a baseline rest image was acquired. The brachial artery was imaged above the antecubital fossa in the longitudinal plane, and a segment with clear anterior and posterior intimal interfaces between the lumen and vessel wall was selected for continuous 2D gray-scale imaging. Blood flow velocity was estimated by time-averaging the pulsed Doppler velocity signal obtained from a mid-artery sample volume. […] After cuff deflation, the longitudinal image of the artery was recorded continuously from 30 seconds before to 2 minutes after cuff deflation. […] The diameter of the brachial artery was measured from longitudinal images in which the lumen-intima interface was visualized on both the near (anterior) and far (posterior) walls. Once the image for analysis was chosen, the boundaries for diameter measurements were identified manually with electronic calipers (Medical Imaging Application Vascular Tools, Coralville, Iowa), and the average diameter was determined from at least 3 different diameter measurements determined along a segment of the vessel. Brachial artery diameter was measured at the same time in the cardiac cycle by use of electrocardiogram (ECG) gating during image acquisition. […]

PAI-1 = experiment: Serum soluble PAI-1 ELISA in subjects with metabolic syndrome; conditions: after four weeks of therapy, quinapril 20 mg/day, alpha lipoic acid 300 mg/day, from baseline
Description: […] Blood was collected at these time periods, and serum levels of soluble PAI-1 and VCAM-1 were determined using an enzyme-linked immunosorbent assay (ELISA). Further, endothelial function in each of the subjects was also determined by flow mediated dilation (FMD) of the brachial artery, utilizing the high resolution ultrasound technique described herein above.

adiponectin = experiment: Serum adiponectin enzyme immunoassay (EIA)
Description: (§2) An aliquot of each sample was then drawn, and an enzyme immunoassay (EIA; Cayman Chemical, Ann Arbor, Mich.) for serum adiponectin and leptin was performed on each sample in triplicate according to well-established protocols (45). A total of 50 μl of serum were used for the analysis. The levels of total serum adiponectin and leptin were determined on a plate reader at an optical density of 420 nm. No interference by quinapril or its metabolites was found in any of the assays.

urinary albumin = experiment: Proteinuria, 24 hour urine collection, standard chemical protein analysis; conditions: versus pretreatment, in words (FIG. 1)
Description: Upon collection of each urine sample, the urine was quickly analyzed, and protein analysis was performed via a standard chemical analysis (Quest Laboratory, Scranton, Pa.).

[4] = HOMA-IR index of insulin resistance
Description: Without wishing to be bound by any particular theory, it was thought that insulin resistance can play an important role in hyperglycemia in type 2 diabetic subjects, and can eventually induce the development of diabetic microangiopathy (20). Indeed, to achieve glycemic control and prevent these complications, several oral hypoglycemic agents that improve insulin resistance, such as thiazolidinediones and biguanides, have been developed and are currently available clinically (21,22). Furthermore, insulin resistance is proposed to play important roles in the pathogenesis of cardiovascular diseases (23,24), the most common cause of death in diabetic subjects. Therefore, a clinical and epidemiological evaluation was undertaken with the subjects described in Example 1 in order to evaluate insulin resistance simply and accurately in the individual diabetic subjects with hypertension. Many investigators have studied simple surrogate indices of insulin resistance in comparison with the index assessed by euglycemic-hyperinsulinemic clamp (clamp-IR); for example, fasting plasma insulin (25), homeostasis model assessment (HOMA) of insulin resistance (HOMA-IR) (26), and the fasting glucose-to-insulin ratio (27). […]

leptin = experiment: Serum leptin enzyme immunoassay (EIA)
Description: as §2

[5] = diabetic hypertensive subjects, quinapril 40 mg/day, alpha lipoic acid 600 mg/day, 8 weeks
[6] = serum, diabetic hypertensive subjects

## CCOC(=O)[C@H](CCc1ccccc1)N[C@@H](C)C(=O)N1Cc2ccccc2C[C@H]1C(=O)O [Quinapril, quinapril]
[1]; during the study
  hypotension (systolic BP less than 100 mm Hg): No subject
[1]; number of subjects affected
  rise in serum potassium or creatinine of greater than 20 percent: 1 out of 40
[1]; quinapril 40 mg/day, alpha lipoic acid 600 mg/day
  incidence of cough: 14%
[1]; throughout the study
  angioedema: No angioedema
Glycosylated hemoglobin; [5]
  Glycosylated Hgb: 7.6 ± 1.5%
Glycosylated hemoglobin; from pretreatment and between the two treatment arms, in words
  change in glycosylated hemoglobin (Hgb): no significant change
[2]; [5]
  Diastolic BP: 77.9 ± 10.0 mmHg
[2]; diabetic hypertensive subjects, quinapril 40 mg/day, alpha lipoic acid 600 mg/day, 8 weeks, mean ± SD
  Systolic BP: 133.4 ± 11.7 mmHg
[2]; versus pretreatment, in words
  change in systolic and diastolic blood pressure after the follow-up period: significant reduction
LDL; human, in vivo
  increase of lag time of LDL oxidation from pretreatment: 23%
LDL; post-treatment
  lag time of LDL oxidation, Post-treatment: 71.0 ± 13.9 s
[3]; at 24 weeks as printed
  increase in flow mediated dilation of the brachial artery as compared to baseline: 59%
[3]; post-treatment, pretreatment 3.86±0.55 percent
  flow mediated dilation of the brachial artery: 6.02±0.80%
PAI-1
  reduction of serum PAI-1 levels: 22%
adiponectin; over pretreatment, in words
  serum levels of adiponectin: significantly increased
adiponectin; [6]
  Adiponectin: 122% of % of pretreatment
Urinary albumin
  ratio of urinary albumin to creatinine: reduced significantly
  urinary albumin: reduced significantly
[4]; end of treatment, pretreatment 3.01±0.33 U/ml
  serum HOMA-IR: 1.83 ± 0.25
[4]; in vivo
  reduction in HOMA-IR from pretreatment baseline: 40%
leptin; [6]
  Leptin: 51% of % of pretreatment
leptin; versus pretreatment, in words
  serum levels of leptin: significantly reduced
